According to PMC8248901 (Journal of clinical haematology, 2021):
Like-named read-outs stand apart in the source and are kept apart here. Blank lines part the entries; values can stand above or below the compound they belong to.

What was measured:
[1] = target: T1, p38γ (Homo sapiens, UniProt P53778); test: In vitro kinase assay using ADP-Glo, p38γ; format: biochemical; conditions: for inhibition of p38γ kinase activity (in words): drugs targeting CDK9, Appendix A Figure 7
T1 construct: human recombinant p38α, β, γ, or δ protein kinases (active full-length) were acquired from SignalChem; purchased SignalChem
T1 sequence (P53778 1-367): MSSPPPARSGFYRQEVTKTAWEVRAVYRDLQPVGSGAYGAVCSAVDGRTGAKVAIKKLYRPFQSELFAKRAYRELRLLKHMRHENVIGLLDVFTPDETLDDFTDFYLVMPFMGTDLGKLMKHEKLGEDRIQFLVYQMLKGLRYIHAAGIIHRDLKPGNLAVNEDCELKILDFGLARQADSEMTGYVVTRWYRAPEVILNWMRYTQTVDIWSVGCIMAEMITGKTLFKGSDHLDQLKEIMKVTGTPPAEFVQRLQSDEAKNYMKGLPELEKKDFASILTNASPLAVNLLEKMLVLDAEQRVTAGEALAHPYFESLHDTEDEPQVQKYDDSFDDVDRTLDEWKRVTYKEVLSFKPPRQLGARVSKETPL
Protocol: (§1) Therefore, we attempted to screen p38γ inhibitors from […] by performing an in vitro kinase assay using ADP-Glo as readout for activated p38 isoforms.
(§2) To identify p38γ inhibitors using in vitro kinase assay, a library of kinase inhibitors was screened. The library consists of 244 compounds on three plates (EMD Cat#539744, #539745 and #539746) that are mostly ATP mimics. […] For biochemical screening, in vitro kinase assays were performed using an ADP-Glo kit (Promega, Madison, WI) according to the manufacture’s protocol. […] Briefly, for in vitro assay experiments, human recombinant p38α, β, γ, or δ protein kinases (active full-length) were acquired from SignalChem, and the assay was performed followed protocols from the company. […] Then, ADP-Glo Reagent was incubated in the mixture at room temperature for 40 min, followed by incubation of Kinase Detection Reagent for another 30 min. IC50 values were determined using CalcuSyn software (Biosoft, Cambridge, United Kingdom).

[2] = tested on: CTCL; parameters: method as in printed at the place; conditions: authors' previous studies of F7, no ref printed at the place, read-out: IC50, efficacy in CTCL; cited from earlier work
[3] = tested on: newly diagnosed acute myeloid leukemia; parameters: method as in NCT01349972; conditions: alvocidib, cytarabine, and mitoxantrone hydrochloride; ref NCT01349972; cited from earlier work
[4] = tested on: refractory metastatic pancreatic cancer; parameters: method as in NCT00331682; conditions: docetaxel followed by flavopiridol; ref NCT00331682; cited from earlier work
[5] = target: T2, p38α (Homo sapiens, UniProt Q16539); test: In vitro kinase assay using ADP-Glo, p38α; format: biochemical; conditions: cell-free
T2 construct: human recombinant p38α, β, γ, or δ protein kinases (active full-length) were acquired from SignalChem; purchased SignalChem
Protocol: as §1, §2

[6] = tested on: advanced stomach or gastro-esophageal junction cancer; parameters: method as in NCT00991952; conditions: irinotecan hydrochloride with or without alvocidib; ref NCT00991952; cited from earlier work
[7] = tested on: relapsed or refractory acute myeloid leukemia; parameters: method as in NCT00634244; conditions: combination chemotherapy regimen, not given; ref NCT00634244; cited from earlier work
[8] = target: T3, p38δ (Homo sapiens, UniProt O15264); test: In vitro kinase assay using ADP-Glo, p38δ; format: biochemical; conditions: cell-free
T3 construct: human recombinant p38α, β, γ, or δ protein kinases (active full-length) were acquired from SignalChem; purchased SignalChem
T3 sequence (O15264 1-365): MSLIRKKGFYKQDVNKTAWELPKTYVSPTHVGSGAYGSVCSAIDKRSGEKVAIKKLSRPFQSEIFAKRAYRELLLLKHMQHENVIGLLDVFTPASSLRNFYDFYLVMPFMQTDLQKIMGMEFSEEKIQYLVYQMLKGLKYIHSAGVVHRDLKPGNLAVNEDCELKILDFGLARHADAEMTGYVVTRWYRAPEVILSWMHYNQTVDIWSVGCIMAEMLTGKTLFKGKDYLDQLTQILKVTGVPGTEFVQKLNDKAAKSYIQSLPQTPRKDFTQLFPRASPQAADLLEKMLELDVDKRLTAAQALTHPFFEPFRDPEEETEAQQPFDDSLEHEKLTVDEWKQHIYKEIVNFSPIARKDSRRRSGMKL
Protocol: as §1, §2

[9] = tested on: Hut78 CTCL cells; test: cells; format: cell-based; conditions: Homo sapiens
Protocol: Cell viability was calculated by diluting cell suspensions 1:1 in 0.4% Trypan Blue solution (Sigma, St. Louis, MO) and counting the number of viable cells using a TC20™ automated cell counter (Bio-Rad, Irvine, CA) which automatically excludes the number of non-viable cells stained with trypan blue per total cells. CellTiterGlo Cell Viability Assay (Promega) method was used as described previously. All data points are an average of triplicate experiments.
CellTiterGlo Cell Viability Assay (Promega) was used to measure viability of Hut78 CTCL cells. […] using an automated BMG PHERAstar plate reader (BMG Labtech, Ortenberg, Germany). IC50 values were determined using CalcuSyn software. All experiments were repeated in three independent experiments and data represented are the average of triplicate experiments.

[10] = tested on: newly diagnosed acute myeloid leukemia; parameters: method as in NCT00795002; conditions: ref NCT00795002, cited from earlier work
[11] = tested on: CTCL; test: Efficacy in CTCL (IC50s quoted in the discussion); format: cell-based
[12] = tested on: newly diagnosed acute myeloid leukemia; parameters: method as in NCT00407966; conditions: alvocidib together with cytarabine and mitoxantrone; ref NCT00407966; cited from earlier work
[13] = tested on: advanced ovarian epithelial cancer or primary peritoneal cancer; parameters: method as in NCT00083122; conditions: cisplatin together with flavopiridol, ref NCT00083122, cited from earlier work
[14] = tested on: lymphoma or multiple myeloma; parameters: method as in NCT00112723; conditions: flavopiridol, trial terminated (administratively complete); ref NCT00112723; cited from earlier work
[15] = tested on: previously treated chronic lymphocytic leukemia or lymphocytic lymphoma; parameters: method as in NCT00058240; conditions: ref NCT00058240, cited from earlier work
[16] = tested on: relapsed or refractory mantle cell lymphoma (MCL) and diffuse large B-cell lymphoma (DLBCL); parameters: method as in NCT00445341; conditions: flavopiridol, ref NCT00445341, cited from earlier work
[17] = tested on: Hut78 cells; test: Combination treatment of FVP and niclosamide, MTS, CI by CompuSyn; format: cell-based; conditions: 72 hours
[18] = HuT78, read-out: Cytotoxicity IC50, Hut78 CTCL cells
[19] = arm 1, alvocidib with cytarabine and mitoxantrone
[20] = arm 2, alvocidib with cytarabine and mitoxantrone

T2 sequence (Q16539 whole entry): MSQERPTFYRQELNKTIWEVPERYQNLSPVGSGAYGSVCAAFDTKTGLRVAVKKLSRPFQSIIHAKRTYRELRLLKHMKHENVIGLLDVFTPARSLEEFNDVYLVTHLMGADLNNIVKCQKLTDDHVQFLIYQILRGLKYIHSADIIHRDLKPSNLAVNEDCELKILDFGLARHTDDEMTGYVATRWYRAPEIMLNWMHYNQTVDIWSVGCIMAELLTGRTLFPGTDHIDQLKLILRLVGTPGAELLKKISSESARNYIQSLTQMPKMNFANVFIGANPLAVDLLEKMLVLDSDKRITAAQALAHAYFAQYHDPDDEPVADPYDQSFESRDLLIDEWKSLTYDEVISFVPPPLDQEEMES

inhibition of p38γ kinase activity (in words) [1]: inhibit p38γ kinase activity
Structure (SMILES): Cc1ccc([N+](=O)[O-])cc1S(=O)(=O)N(C)/N=C/c1cnc2ccc(Br)cn12 [F7]
IC50 [2]: 29 to 33 nM

IC50 [5]: 1340 nM | IC50 [8]: 450 nM | IC50 [11]: 120 nM
Structure (SMILES): CN1CC[C@H](c2c(O)cc(O)c3c(=O)cc(-c4ccccc4Cl)oc23)[C@H](O)C1 [FVP, Flavopiridol]
complete response [3]: 76/109 | serious adverse events [3]: 53/114 | median overall survival [4]: 4.2 months | median time to disease progression [4]: 8 weeks | serious adverse events [4]: 9/9 | stable disease [4]: 3/9 | partial response [6]: 1/13 | serious adverse events [6]: 6/13 | stable disease [6]: 4/13 | Serious adverse event [7]: 36/36 | complete remission [7]: 10/36 | IC50 [9, 18]: 94 nM | IC50 ([9]; HuT78, read-out: Cytotoxicity IC50, Hut78 cells, abstract): < 100 nM | Serious adverse event [10, 19]: 8/39 | complete response [10, 19]: 24/37 | Serious adverse event [10, 20]: 8/39 | complete response [10, 20]: 29/37 | serious adverse events [12]: 19/45 | complete response ([13]; out of 45 patients): 1 | partial responses ([13]; out of 45 patients): 8 | Median OS [13]: 17.5 months | median time to progression [13]: 4.3 months | serious adverse events [13]: 23/45 | partial response [14]: 6/43 partial response | ORR ([15]; flavopiridol): 21/52 | serious adverse events ([15]; highest dose group): 1/16 | serious adverse events ([15]; lower dose group): 11/42 | serious adverse events ([16]; patients affected/total): 14/28 | partial response ([16]; patients responding/evaluated): 2/26 | complete response [16]: no complete response

IC50 ([1]; cell-free, ADP-Glo): 1600 nM | targets p38δ isoform (in words) [8]: targets three isoforms except p38δ
Structure (SMILES): O=c1c(O)c(-c2cc(O)c(O)c(O)c2)oc2cc(O)cc(O)c12 [Myricetin]
IC50 [9, 18]: 19200 nM

inhibition of p38γ kinase activity (in words) [1]: inhibit p38γ kinase activity
Structure (SMILES): CN1CCC(c2c(O)cc(O)c3c(=O)cc(-c4ccccc4Cl)oc23)C1CO (centres unmarked) [P276-00]

Structure (SMILES): O=C(Nc1ccc([N+](=O)[O-])cc1Cl)c1cc(Cl)ccc1O [niclosamide]
CI ([17]; FVP 60.0 nM + Nic 0.2 μM (200 nM)): 0.6 | CI ([17]; FVP 240.0 nM + Nic 0.2 μM (200 nM)): 0.7
